We go through 3 compounds from ChEMBL document CHEMBL4145534, “Computer-aided insights into receptor-ligand interaction for novel 5-arylhydantoin derivatives as serotonin 5-HT7 receptor agents with antidepressant activity” (Eur J Med Chem, 2018).

One assay deals with D(2) dopamine receptor (Homo sapiens, UniProt P14416). The experiment in a line: Displacement of [3H]-raclopride from human D2L receptor expressed in HEK293 cell membranes after 1 hr by Microbeta scintillation counting method. In general terms: Displacement assays read how much labelled ligand stays bound in the presence of the test substance.
Sequence of D(2) dopamine receptor (P14416 whole entry): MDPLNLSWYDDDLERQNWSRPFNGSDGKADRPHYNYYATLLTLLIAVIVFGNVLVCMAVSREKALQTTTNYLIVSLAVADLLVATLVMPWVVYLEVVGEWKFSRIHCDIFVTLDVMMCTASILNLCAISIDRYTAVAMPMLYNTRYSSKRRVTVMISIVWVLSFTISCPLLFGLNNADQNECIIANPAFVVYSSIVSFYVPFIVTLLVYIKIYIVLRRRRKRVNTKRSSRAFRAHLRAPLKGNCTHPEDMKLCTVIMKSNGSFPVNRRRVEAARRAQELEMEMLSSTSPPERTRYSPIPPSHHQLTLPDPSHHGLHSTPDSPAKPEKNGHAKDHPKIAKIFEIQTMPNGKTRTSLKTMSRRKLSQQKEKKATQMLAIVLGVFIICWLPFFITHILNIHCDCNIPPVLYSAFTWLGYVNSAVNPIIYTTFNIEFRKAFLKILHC
The target of assay [1] is T1, Adrenergic receptor alpha-2 (Rattus norvegicus, UniProt P22086+P19328+P22909).
T1 sequence (P22086 whole entry): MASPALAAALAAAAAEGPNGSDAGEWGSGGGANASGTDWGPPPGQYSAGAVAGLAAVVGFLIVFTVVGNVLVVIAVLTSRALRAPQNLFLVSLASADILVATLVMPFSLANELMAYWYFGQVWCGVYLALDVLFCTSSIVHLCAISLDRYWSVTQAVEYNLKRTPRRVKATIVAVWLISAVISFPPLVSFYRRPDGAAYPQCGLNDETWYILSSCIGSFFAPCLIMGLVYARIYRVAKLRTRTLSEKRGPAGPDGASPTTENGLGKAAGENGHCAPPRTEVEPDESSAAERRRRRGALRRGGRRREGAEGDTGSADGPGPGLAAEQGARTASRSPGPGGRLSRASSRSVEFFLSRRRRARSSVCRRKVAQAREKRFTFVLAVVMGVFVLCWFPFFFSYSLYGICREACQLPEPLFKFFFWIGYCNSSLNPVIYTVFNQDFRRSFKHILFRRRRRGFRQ
T1 sequence (P19328 whole entry): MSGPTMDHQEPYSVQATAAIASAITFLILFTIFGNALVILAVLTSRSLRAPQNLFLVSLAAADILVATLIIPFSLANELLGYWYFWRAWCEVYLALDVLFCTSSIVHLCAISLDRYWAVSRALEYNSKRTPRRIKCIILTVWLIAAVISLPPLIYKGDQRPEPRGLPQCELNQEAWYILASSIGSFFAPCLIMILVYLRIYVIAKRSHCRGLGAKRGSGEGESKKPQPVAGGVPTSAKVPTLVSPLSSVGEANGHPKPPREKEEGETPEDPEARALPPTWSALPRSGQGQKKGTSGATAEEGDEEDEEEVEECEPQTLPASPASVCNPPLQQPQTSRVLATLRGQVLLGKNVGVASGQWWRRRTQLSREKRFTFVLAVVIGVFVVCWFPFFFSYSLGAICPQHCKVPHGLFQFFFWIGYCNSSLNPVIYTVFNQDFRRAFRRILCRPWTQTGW
T1 sequence (P22909 whole entry): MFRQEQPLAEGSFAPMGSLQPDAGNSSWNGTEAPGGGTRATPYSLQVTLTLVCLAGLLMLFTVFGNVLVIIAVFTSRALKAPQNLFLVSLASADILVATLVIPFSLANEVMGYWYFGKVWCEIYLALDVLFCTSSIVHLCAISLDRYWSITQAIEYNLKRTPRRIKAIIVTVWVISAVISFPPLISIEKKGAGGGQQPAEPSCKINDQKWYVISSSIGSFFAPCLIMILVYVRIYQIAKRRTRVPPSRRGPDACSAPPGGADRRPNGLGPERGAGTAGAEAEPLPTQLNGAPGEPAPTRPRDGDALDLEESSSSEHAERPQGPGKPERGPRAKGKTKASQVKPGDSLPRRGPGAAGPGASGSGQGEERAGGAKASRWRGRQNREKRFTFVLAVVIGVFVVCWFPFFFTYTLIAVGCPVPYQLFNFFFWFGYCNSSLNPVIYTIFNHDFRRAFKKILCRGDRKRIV
The experiment in a line: Displacement of [3H]-clonidine from alpha2-adrenergic receptor in rat brain cortex after 30 mins by Microbeta scintillation counting method.

The target in assay [2] is T2, 5-hydroxytryptamine receptor 1A (Homo sapiens, UniProt P08908).
T2 sequence (P08908 whole entry): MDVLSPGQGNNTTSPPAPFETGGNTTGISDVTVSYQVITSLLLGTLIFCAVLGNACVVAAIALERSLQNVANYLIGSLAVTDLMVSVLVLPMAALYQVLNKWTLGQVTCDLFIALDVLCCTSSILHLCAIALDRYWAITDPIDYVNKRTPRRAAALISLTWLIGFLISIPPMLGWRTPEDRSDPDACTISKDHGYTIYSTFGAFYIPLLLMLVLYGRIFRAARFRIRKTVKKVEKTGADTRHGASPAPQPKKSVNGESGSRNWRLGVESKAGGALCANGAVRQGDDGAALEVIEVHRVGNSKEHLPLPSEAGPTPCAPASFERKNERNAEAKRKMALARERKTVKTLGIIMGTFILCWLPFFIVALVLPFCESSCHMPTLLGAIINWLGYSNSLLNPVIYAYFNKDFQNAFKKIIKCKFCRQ
The experiment in a line: Displacement of [3H]-8-OH-DPAT from human 5HT1AR expressed in HEK293 cell membranes after 1 hr by Microbeta scintillation counting method.

Assay [3] has as its target 5-hydroxytryptamine receptor 7 (Homo sapiens, UniProt P34969). The experiment in a line: Displacement of [3H]-5-CT from human 5HT7BR expressed in HEK293 cell membranes after 1 hr by Microbeta scintillation counting method.

Sequence of 5-hydroxytryptamine receptor 7 (P34969 whole entry): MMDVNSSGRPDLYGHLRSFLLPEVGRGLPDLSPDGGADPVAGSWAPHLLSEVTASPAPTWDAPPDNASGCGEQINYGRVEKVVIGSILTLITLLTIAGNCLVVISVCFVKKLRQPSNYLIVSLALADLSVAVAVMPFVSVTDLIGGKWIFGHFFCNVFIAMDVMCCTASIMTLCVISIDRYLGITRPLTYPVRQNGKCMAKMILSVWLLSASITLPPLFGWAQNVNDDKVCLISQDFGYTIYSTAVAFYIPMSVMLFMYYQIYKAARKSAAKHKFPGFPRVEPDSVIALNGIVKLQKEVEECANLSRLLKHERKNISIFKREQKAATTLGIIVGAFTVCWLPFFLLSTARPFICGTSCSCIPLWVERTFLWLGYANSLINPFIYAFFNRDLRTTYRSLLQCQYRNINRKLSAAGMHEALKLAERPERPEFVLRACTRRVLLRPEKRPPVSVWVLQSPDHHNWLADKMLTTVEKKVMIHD

For `CC1(c2ccc(Br)cc2)NC(=O)N(CC(O)CN2CCN(c3ccccc3C#N)CC2)C1=O.Cl` (racemic), the Ki – broadly, a measure of affinity in units of concentration, obtained from inhibition or displacement – was 0.506 µM on D(2) dopamine receptor, more than 5 µM in assay [1], 0.14 µM in assay [2] and 0.007 µM in assay [3].

In the case of `CC1(c2ccc(Cl)cc2)NC(=O)N(CC(O)CN2CCN(c3ccccc3C#N)CC2)C1=O.Cl` (racemic), the Ki is 1.28 µM on D(2) dopamine receptor, more than 10 µM in assay [1], 0.305 µM in assay [2] and 0.009 µM in assay [3].

In the case of `COc1ccccc1N1CCN(CC(O)CN2C(=O)NC(C)(c3ccc(Br)cc3)C2=O)CC1.Cl` (racemic), the Ki is 0.267 µM on D(2) dopamine receptor, more than 5 µM in assay [1], 0.085 µM in assay [2] and 0.01 µM in assay [3].
